Assay results: patent US20070128217A1 (priority 2003, published 2007)

Assays:
[1] = system: control sera (pooled serum of ten healthy LUMC hospital workers; commercial negative donor pooled serum from the Dutch bloodbank); format: binding, human; design: Binding of Control serum LUMC to linear peptides / Binding of Control serum Blood-bank to linear peptides / Binding of Control serum LUMC to looped peptides / Binding of Control Serum Blood-Bank to Looped peptides / Binding of Control serum LUMC to linear peptides of the protein M of SARS-CoV Urbani / Binding of Control serum Blood-bank to linear peptides of the protein M of SARS-CoV Urbani / Binding of Control serum LUMC to looped peptides of the protein M of SARS-CoV Urbani / Binding of Control Serum Blood-Bank to Looped peptides of the protein M of SARS-CoV Urbani: unit not given here
[2] = system: rabbit serum obtained by immunizing a rabbit with the SARS-CoV strain Frankfurt 1; format: binding; design: Binding of a rabbit serum to linear peptides / Binding of a rabbit serum to looped peptides / Rabbit serum linear peptides / Rabbit serum looped peptides / Binding of a rabbit serum to linear peptides of protein N of SARS-CoV Urbani (Rabbit serum linear peptides) / Binding of a rabbit serum to looped/cyclic peptides of protein N of SARS-CoV Urbani (Rabbit serum looped peptides): unit not given here
[3] = system: antibodies in sera from SARS patients (sera 1a, 1b, 2, 6, 37, 62, London, SARS-yellow, SARS-green); format: binding, human; design: Binding of serum 6 to linear peptides of protein X1 of SARS-CoV Urbani / Binding of serum 37 to linear peptides of protein X1 of SARS-CoV Urbani / Binding of serum 6 to looped/cyclic peptide (PEPSCAN-ELISA) / Binding of serum 37 to looped/cyclic peptide (PEPSCAN-ELISA) / Binding of serum 37 to looped/cyclic peptides of protein X1 of SARS-CoV Urbani / Binding of serum 6 to linear peptides of protein X2 / Binding of serum 37 to linear peptides of protein X2 / Binding of serum 37 to looped/cyclic peptides of protein X2 of SARS-CoV Urbani / Binding of serum 6 to linear peptides of protein M of SARS-CoV Urbani / Binding of serum 37 to linear peptides of protein M of SARS-CoV Urbani / Binding of serum 6 to looped/cyclic peptides of protein M of SARS-CoV Urbani / Binding of serum 37 to looped/cyclic peptides of protein M of SARS-CoV Urbani / Binding of serum 6 to linear peptides of protein X3 of SARS-CoV Urbani / Binding of serum 37 to linear peptides of protein X3 of SARS-CoV Urbani / Binding of serum 37 to looped/cyclic peptides of protein X3 of SARS-CoV Urbani / Binding of serum 6 to linear peptides of protein X4 of SARS-CoV Urbani / Binding of serum 37 to linear peptides of protein X4 of SARS-CoV Urbani / Binding of serum 37 to looped/cyclic peptides of protein X4 of SARS-CoV Urbani / Binding of serum 6 to linear peptides of protein X5 of SARS-CoV Urbani / Binding of serum 37 to linear peptides of protein X5 of SARS-CoV Urbani / Binding of serum 37 to looped/cyclic peptides of protein X5 of SARS-CoV Urbani / Binding of serum 6 to linear peptides of protein N of SARS-CoV Urbani / Binding of serum 37 to linear peptides of protein N of SARS-CoV Urbani / Binding of serum 6 to linear peptide (PEPSCAN-ELISA) / Binding of serum 1a to looped/cyclic peptides of protein N of SARS-CoV Urbani / Binding of serum 1b to looped/cyclic peptides of protein N of SARS-CoV Urbani / Binding of serum 2 to looped/cyclic peptides of protein N of SARS-CoV Urbani / Binding of serum 6 to looped/cyclic peptides of protein N of SARS-CoV Urbani / Binding of serum 37 to looped/cyclic peptides of protein N of SARS-CoV Urbani / Binding of serum 62 to looped/cyclic peptides of protein N of SARS-CoV Urbani / Binding of serum London to looped/cyclic peptides of protein N of SARS-CoV Urbani / Binding of serum SARS-green to looped/cyclic peptides of protein N of SARS-CoV Urbani: unit not given here
[4] = system: recombinant human anti-SARS-CoV antibody 03-018; format: binding; design: Binding of antibody 03-018 to linear peptides of the N protein of SARS-CoV Urbani / Binding of antibody 03-018 to looped/cyclic peptides of the N protein of SARS-CoV Urbani: unit not given here

Row | Sequence | Binding of serum 1a to linear peptides of protein N of SARS-CoV Urbani [3] | Binding of serum 1a to looped/cyclic peptides of protein N of SARS-CoV Urbani [3] | Binding of serum 1b to linear peptides of protein N of SARS-CoV Urbani [3] | Binding of serum 1b to looped/cyclic peptides of protein N of SARS-CoV Urbani [3] | Binding of serum 2 to linear peptides of protein N of SARS-CoV Urbani [3] | Binding of serum 2 to looped/cyclic peptides of protein N of SARS-CoV Urbani [3] | Binding of serum 6 to linear peptides of protein N of SARS-CoV Urbani [3] | Binding of serum 6 to looped/cyclic peptides of protein N of SARS-CoV Urbani [3] | Binding of serum 37 to linear peptides of protein N of SARS-CoV Urbani [3] | Binding of serum 37 to looped/cyclic peptides of protein N of SARS-CoV Urbani [3] | Binding of serum 62 to linear peptides of protein N of SARS-CoV Urbani [3] | Binding of serum 62 to looped/cyclic peptides of protein N of SARS-CoV Urbani [3] | Binding of serum London to linear peptides of protein N of SARS-CoV Urbani [3] | Binding of serum London to looped/cyclic peptides of protein N of SARS-CoV Urbani [3] | Binding of serum SARS-green to linear peptides of protein N of SARS-CoV Urbani [3] | Binding of serum SARS-green to looped/cyclic peptides of protein N of SARS-CoV Urbani [3] | Binding of serum SARS-yellow to linear peptides of protein N of SARS-CoV Urbani [3] | Binding of serum SARS-yellow to looped/cyclic peptides of protein N of SARS-CoV Urbani [3] | Binding of antibody 03-018 to linear peptides of the N protein of SARS-CoV Urbani [4] | Binding of antibody 03-018 to looped/cyclic peptides of the N protein of SARS-CoV Urbani [4] | also measured
1 | IGYYRRATRRVRGGD | 0.2 | 0.3 | 0.1 | 0.2 | 0.1 | 0.5 | 0.2 | 0.3 | 0.5 | 0.7 | 0.4 | 0.6 | 0.4 | 0.4 | 0.2 | 0.3 | 0.6 | 0.5 | 0.1 | 0.2 | Binding of Control Serum Blood-Bank to Looped peptides [1]: 0.7; Binding of Control serum Blood-bank to linear peptides [1]: 0.7; Binding of Control serum LUMC to linear peptides [1]: 0.5; Binding of Control serum LUMC to looped peptides [1]: 0.7; Recognition of the peptide by the rabbit serum [2]: recognized
2 | ILLNKHIDAYKTFPP | 0.2 | 0.4 | 0.1 | 0.3 | 0.2 | 0.5 | 0.2 | 0.3 | 0.7 | 0.7 | 0.7 | 0.7 | 0.5 | 0.5 | 0.3 | 0.5 | 0.5 | 0.7 | 0.1 | 0.2 | Control Serum Blood-Bank Looped peptides [1]: 0.6; Control serum Blood-bank linear peptides [1]: 0.7; Control serum LUMC linear peptides [1]: 0.7; Control serum LUMC looped peptides [1]: 0.7; Binding of a rabbit serum to linear peptides of protein N of SARS-CoV Urbani (Rabbit serum linear peptides) [2]: 0.2; Binding of a rabbit serum to looped/cyclic peptides of protein N of SARS-CoV Urbani (Rabbit serum looped peptides) [2]: 0.6
3 | INTNSGPDDQIGYYR | 0.3 | 0.4 | 0.2 | 0.3 | 0.2 | 0.4 | 0.2 | 0.2 | 0.9 | 0.7 | 0.7 | 0.5 | 0.4 | 0.4 | 0.2 | 0.5 | 0.7 | 0.5 | 0.1 | 0.2 | Binding of Control Serum Blood-Bank to Looped peptides [1]: 0.6; Binding of Control serum Blood-bank to linear peptides [1]: 0.8; Binding of Control serum LUMC to linear peptides [1]: 0.7; Binding of Control serum LUMC to looped peptides [1]: 0.7; Binding of a rabbit serum to linear peptides of protein N of SARS-CoV Urbani (Rabbit serum linear peptides) [2]: 0.2; Binding of a rabbit serum to looped/cyclic peptides of protein N of SARS-CoV Urbani (Rabbit serum looped peptides) [2]: 0.5
4 | IRQGTDYKHWPQIAQ | 0.2 | 0.4 | 0.1 | 0.2 | 0.2 | 0.4 | 0.2 | 0.2 | 0.7 | 0.6 | 0.6 | 0.6 | 0.9 | 0.4 | 0.3 | 0.3 | 0.6 | 0.4 | 0.1 | 0.2 | Binding of Control Serum Blood-Bank to Looped peptides [1]: 0.5; Binding of Control serum Blood-bank to linear peptides [1]: 0.7; Binding of Control serum LUMC to linear peptides [1]: 0.7; Binding of Control serum LUMC to looped peptides [1]: 0.6; Binding of a rabbit serum to linear peptides of protein N of SARS-CoV Urbani (Rabbit serum linear peptides) [2]: 0.1; Binding of a rabbit serum to looped/cyclic peptides of protein N of SARS-CoV Urbani (Rabbit serum looped peptides) [2]: 0.3
